The source of these data is ChEMBL document CHEMBL3603820, “Discovery of a novel 2,3,11,11a-tetrahydro-1H-pyrazino[1,2-b]isoquinoline-1,4(6H)-dione series promoting neurogenesis of human neural progenitor cells” (Bioorg Med Chem Lett, 2015).

Active and inactive are the calls of the source. No cut-off for these calls is given here.

Series [1] is described as follows: (§1) Induction of neurogenesis in human H9-derived neuronal progenitor cells at 10 uM assessed as increase in Tuj1 positive cells. Format: functional, Neuronal progenitor cell.
The subject of series [2] is Neuronal progenitor cell. The description is as §1. Format: functional.
A short description of series [3]: Unbound fraction in C57BL/6 mouse brain. It is filed as ADME, tissue-based. To be noted: brain tissue.
Series [4] deals with Plasma. In words: Plasma concentration in C57BL/6 mouse at 13.4 mg/kg, ip. To be noted: in vivo. It is filed as ADME, organism-based.
The test system of series [5] is Brain. In words: Drug concentration in C57BL/6 mouse brain at 13.4 mg/kg, ip. To be noted: in vivo, read-out: Drug uptake. Format: ADME, organism-based.
For series [6], the system named is Mus musculus. In words: Induction of neurogenesis in C57BL/6 mouse assessed as increase in BrdU+NeuN+/BrdU+ cells in dentate gyrus at 8.5 mg/kg, ip qd for 7 days and measured on day 14 by immunohistochemistry relative to vehicle control. Format: functional.
Series [7] has as its system Mus musculus. In words: Induction of neurogenesis in C57BL/6 mouse assessed as increase in BrdU+NeuN+/BrdU+ cells in dentate gyrus at 8.5 mg/kg, ip qd for 7 days and measured on day 14 by immunohistochemistry relative to control. It is filed as functional.
Series [8] is described as follows: Tmax in C57BL/6 mouse brain at 1.81 mg/kg, po. Format: ADME, organism-based.
Series [9] is described as follows: Tmax in C57BL/6 mouse plasma at 1.81 mg/kg, po. Format: ADME, organism-based.
Series [10] can be described thus: Tmax in C57BL/6 mouse plasma at 13.4 mg/kg, ip. It is filed as ADME, organism-based.
A short description of series [11]: Cmax in C57BL/6 mouse brain at 1.81 mg/kg, po. It is filed as ADME, organism-based. Also noted: dose 1.81 mg/kg, route oral.
A short description of series [12]: Cmax in C57BL/6 mouse plasma at 1.81 mg/kg, po. Format: ADME, organism-based. On the set-up: dose 1.81 mg/kg, route oral.
Series [13] is described as follows: Cmax in C57BL/6 mouse plasma at 13.4 mg/kg, ip. On the set-up: dose 13.4 mg/kg, route intraperitoneal. It is filed as ADME, organism-based.
A short description of series [14]: Half life in C57BL/6 mouse plasma at 13.4 mg/kg, ip. It is filed as ADME, organism-based.
Series [15] in a line: AUC (0 to t) in C57BL/6 mouse brain at 1.81 mg/kg, po. It is filed as ADME, organism-based.
Series [16] can be described thus: AUC (0 to t) in C57BL/6 mouse plasma at 1.81 mg/kg, po. It is filed as ADME, organism-based.
Series [17] can be described thus: AUC (0 to t) in C57BL/6 mouse plasma at 13.4 mg/kg, ip. Format: ADME, organism-based.
The test system of series [18] is Brain. In words: Dose normalized AUC in C57BL/6 mouse brain at 1.81 mg/kg, po. Format: ADME, organism-based. To be noted: in vivo.
Series [19] relates to Plasma. The series is described as follows: Dose normalized AUC in C57BL/6 mouse plasma at 1.81 mg/kg, po. Format: ADME, organism-based. To be noted: in vivo.
Series [20] has as its system Plasma. The series is described as follows: Dose normalized AUC in C57BL/6 mouse plasma at 13.4 mg/kg, ip. Format: ADME, organism-based. To be noted: in vivo.
A short description of series [21]: Ratio of drug level in brain to plasma in C57BL/6 mouse at 1.81 mg/kg, po. Format: ADME, organism-based. To be noted: read-out: BPR.
Series [22] has as its system Neuronal progenitor cell. In words: Induction of neurogenesis in human H9-derived neuronal progenitor cells at 0.3125 to 10 uM assessed as increase in Tuj1 protein levels incubated for 5 days by Western blotting method. Format: functional. (In general: Immunoblotting shows a protein as a band on a membrane.)
Series [23] is described as follows: Ratio of drug level in brain to plasma in mouse. Format: ADME, organism-based. To be noted: read-out: BPR.
Series [24] is described as follows: Induction of neurogenesis in mouse neuronal progenitor cells at 0.1 to 10 uM assessed as increase in Tuj1 positive cells. It is filed as functional, Neuronal progenitor cell.
A short description of series [25]: Induction of neurogenesis in human H9-derived neuronal progenitor cells at 0.1 to 10 uM assessed as increase in Tuj1 positive cells. It is filed as functional, Neuronal progenitor cell.
Series [26] is described as follows: Toxicity in mouse neuronal progenitor cells at 0.1 to 10 uM assessed as increase in DAPI positive cells. Format: cell-based. To be noted: neuronal progenitor cell.
Series [27] is described as follows: Toxicity in human H9-derived neuronal progenitor cells at 0.1 to 10 uM assessed as increase in DAPI positive cells. Format: cell-based. To be noted: neuronal progenitor cell.

Regarding `N#Cc1cccc(COc2ccc3c(c2)CN2C(=O)CN(C4CCN(CCF)CC4)C(=O)[C@H]2C3)c1`, the “fold change (FC)” value in series [1] is on record as 1.91. Still for that read-out and setting: the same measure for `CCOC(=O)C[C@H]1CC[C@H](N2CC(=O)N3Cc4cc(OCc5cccc(C#N)c5)ccc4C[C@@H]3C2=O)CC1`: 1.69.

`N#Cc1cccc(COc2ccc3c(c2)CN2C(=O)CN(C4CCCC4)C(=O)[C@@H]2C3)c1`: the “fold change (FC)” value with Neuronal progenitor cell [2] is “inactive”. As for `N#Cc1cccc(OCc2ccc3c(c2)CN2C(=O)CN(C4CCCC4)C(=O)[C@H]2C3)c1`, the “fold change (FC)” value in series [1] was found to be 2. As for `N#Cc1cccc(COc2ccc3c(c2)CN2C(=O)CN(C4CCN(CC(F)F)CC4)C(=O)[C@H]2C3)c1`, in the series with Neuronal progenitor cell [2], the “fold change (FC)” value is “inactive”. Regarding `C[C@H]1C(=O)N2Cc3cc(OCc4cccc(C#N)c4)ccc3C[C@@H]2C(=O)N1C1CCCC1`, in [1], the “fold change (FC)” value is on record as 1.98.

Take `O=C1[C@H]2Cc3ccc(OCc4ccccc4)cc3CN2C(=O)CN1C1CCCC1`: in series [1], the “fold change (FC)” value was found to be 2.07. For `N#Cc1cccc(COc2ccc3c(c2)CN2C(=O)CN(C4CCN(CC(F)(F)F)CC4)C(=O)[C@H]2C3)c1`, in the series with Neuronal progenitor cell [2], the “fold change (FC)” value is “inactive”. Turning to `N#Cc1cccc(COc2ccc3c(c2)CN2C(=O)CN(C4CCOCC4)C(=O)[C@H]2C3)c1`, in the series on Neuronal progenitor cell [2], the “fold change (FC)” value is “inactive”. `N#Cc1cccc(COc2ccc3c(c2)CN2C(=O)CN(C4CCNCC4(F)F)C(=O)[C@H]2C3)c1` (stereo not given in full): in series [1], the “fold change (FC)” value was determined as 1.78. As for `N#Cc1cccc(COc2ccc3c(c2)CN2C(=O)CN(C4CCCC4)C(=O)[C@H]2C3)c1`, the entries for the “fold change (FC)” value (in series [1]; in the series on Mus musculus [7]) were 2.35 and 1.3, respectively. The fraction unbound in series [3] is 0.02. The values for the concentration in the series with Plasma [4] and with Brain [5] were 8.4 µM and 6.1 µM, respectively. Besides, in the series on Mus musculus [6], the Activity was 11.7%. Also, the Tmax in [8] turned out to be 1 h; in series [9], 1 h; in series [10] it was 0.25 h. Moreover, the results for the Cmax in series [11], in series [12] and in series [13] were 92 ng/mL, 126 ng/mL and 3500 ng/mL, respectively. This compound also showed a half-life in [14] of 4.95 h. Also, the values for the AUC(0-t) in series [15], in series [16] and in [17] were 280 ng·h/mL, 534 ng·h/mL and 10500 ng·h/mL, respectively. Besides, the AUC/dose in the series with Brain [18] amounted to 155 ng·h/mL/mg/kg; with Plasma [19], 296 ng·h/mL/mg/kg; with Plasma [20] it was 794 ng·h/mL/mg/kg. Moreover, in series [21], the Kp was 0.1.

On to `O=C1[C@H]2Cc3ccc(OCc4ccc(Cl)cc4)cc3CN2C(=O)CN1C1CCCC1`, for which the “fold change (FC)” value in series [1] is given as 2.09.

For the compound `N#Cc1csc(COc2ccc3c(c2)CN2C(=O)CN(C4CCCC4)C(=O)[C@H]2C3)c1`, the “fold change (FC)” value in [1] is reported as 1.74. On the same count and under the same terms, the same measure for `CCN(Cc1cccc(C#N)c1)c1ccc2c(c1)CN1C(=O)CN(C3CCCCC3)C(=O)[C@H]1C2`: 1.45; for `N#Cc1cccc(COc2ccc3c(c2)CN2C(=O)CN(CC4CCC4)C(=O)[C@H]2C3)c1`: 2.12. As for `N#Cc1cccc(COc2ccc3c(c2Br)CN2C(=O)CN(C4CCCC4)C(=O)[C@H]2C3)c1`, the values for the Activity entry (in the series with Neuronal progenitor cell [22]; in series [26]; in series [27]) were “Dose-dependent effect”, “Non-toxic” and “Non-toxic”, respectively. In addition, the “fold change (FC)” value stood at 1.9 in series [1], 1.2 in [24] and 1.8 in [25]. In addition, the Kp in [23] came to 0.5. For `COC[C@@H]1C(=O)N2Cc3cc(OCc4cccc(C#N)c4)ccc3C[C@@H]2C(=O)N1C1CCCC1`, the “fold change (FC)” value in [1] is reported as 2.36. Take `O=C1[C@H]2Cc3ccc(OCc4cccc(Cl)c4)cc3CN2C(=O)CN1C1CCCC1`: the “fold change (FC)” value in series [1] was 2.29. Regarding `N#Cc1cccc(COc2ccc3c(c2)CN2C(=O)CN(CC4CC4)C(=O)[C@H]2C3)c1`, the “fold change (FC)” value in series [1] is listed as 1.57. On to `CCNC(=O)c1cccc(COc2ccc3c(c2)CN2C(=O)CN(C4CCCC4)C(=O)[C@H]2C3)c1`, for which, in series [1], the “fold change (FC)” value is reported as 1.65. As to `N#Cc1cccc(COc2ccc3c(c2)CN2C(=O)[C@@H](CO)N(C4CCCC4)C(=O)[C@H]2C3)c1`, in series [1], the “fold change (FC)” value came to 2.36. On to `COC[C@H]1C(=O)N2Cc3cc(OCc4cccc(C#N)c4)ccc3C[C@@H]2C(=O)N1C1CCCC1`, for which, in [1], the “fold change (FC)” value turned out to be 1.55. As for `O=C1[C@H]2Cc3ccc(OCc4cccc(N5CCOCC5)c4)cc3CN2C(=O)CN1C1CCCC1`, the “fold change (FC)” value in series [1] stood at 2.06. As for `C[C@@H]1C(=O)N2Cc3cc(OCc4cccc(C#N)c4)ccc3C[C@@H]2C(=O)N1C1CCCC1`, the “fold change (FC)” value in series [1] is given as 2.41. Still for that read-out and setting: the same measure for `N#Cc1cccc(COc2ccc3c(c2)CN2C(=O)CN(C4CCCCC4)C(=O)[C@H]2C3)c1`: 2.02; for `O=C1[C@H]2Cc3ccc(OCc4cccc(F)c4)cc3CN2C(=O)CN1C1CCCC1`: 1.83. Still for that read-out and setting: the same measure for `CN(Cc1cccc(C#N)c1)c1ccc2c(c1)CN1C(=O)CN(C3CCCCC3)C(=O)[C@H]1C2`: 1.67; for `N#Cc1cccc(CNc2ccc3c(c2)CN2C(=O)CN(C4CCCCC4)C(=O)[C@H]2C3)c1`: 1.53. As for `N#Cc1cccc(COc2ccc3c(c2)CN2C(=O)CN(C4CCNCC4)C(=O)[C@H]2C3)c1`, in the series on Neuronal progenitor cell [2], the “fold change (FC)” value is “inactive”. Consider `N#Cc1cccc(COc2ccc3c(c2)CN2C(=O)[C@H](CO)N(C4CCCC4)C(=O)[C@H]2C3)c1`, for which the “fold change (FC)” value with Neuronal progenitor cell [2] is “inactive”.

As usually defined, the fraction unbound is free concentration divided by total concentration. Read a low fraction unbound as extensive binding. Broadly, the Tmax is the time at which the peak concentration occurs. The term Cmax denotes the highest concentration seen after dosing. For orientation: half-life means how long it takes for the measured level to halve. A high value points to slow decline. In general, AUC(0-t) refers to the area under the concentration-time curve up to a stated or last time point. A high value points to more exposure.
